Values joined by “and” are separate entries in the source; they are usually repeats but may differ in a detail not shown here. Equal values may be shown once.
Columns and labels:
[1] = system: SCC-4; assay: MTT cell viability assay, SCC-4; assay type: cell-based, human
Protocol: (§1) The viability of SCC cell lines and primary human fibroblast cells was evaluated using the MTT assay to determine half maximal inhibitory concentration (IC50). Briefly, cells were grown in triplicate in 96-well plates (5 × 10^3 cells/well) until confluence. Then the medium was removed, fresh medium was added, and the cells were returned to the incubator in the presence of different compounds. DMSO at the same concentrations was used as a 100% cell viability control. After 48 h, cells were incubated with 5 mg/mL MTT reagent (3-(4,5-dimethyl-2-thiazolyl)-2,5-diphenyl-2-H-tetrazolium bromide) (Sigma-Aldrich Co., St. Louis, MO, USA) for 3.5 h. After that, formazan crystals were dissolved in MTT solvent solution (DMSO/methanol 1:1 v/v), and the absorbance at 560 nm was evaluated using an EPOCH microplate spectrophotometer (BioTek Instruments, Winooski, VT, USA) with the background absorbance at 670 nm subtracted. Each of the 12 compounds (7a–7l) was tested at six different concentrations, ranging from 6.25 to 200 μM in cancer and normal cell lines. Control (carboplatin) was tested at six different concentrations ranging from 25 μM to 800 μM in cancer cells and from 50 μM to 1600 μM in normal cells.
(§2) Half-maximal inhibitory concentration (IC50) values were obtained from the MTT assay of at least three independent replicates through nonlinear regression analysis using GraphPad Prism 5.0 software (Intuitive Software for Science, San Diego, CA, USA). Data were presented as means ± standard deviation (SD). A log dose–response curve (inhibitor vs response) using the least-squares method was used to determine the IC50 and SD from the data. The selectivity index (SI) was calculated as the ratio between the IC50 in normal cells and the IC50 in cancer cells, obtained by dividing the IC50 of normal cells by the IC50 of cancer cells.

[2] = system: Primary Gingival Fibroblast; assay: MTT cell viability assay, normal cells; assay type: cell-based, human
Protocol: as §1, §2

[3] = Hemolysis assay; assay type: cell-based; details: isolated human erythrocytes, pH 7.5, read-out: level of hemolysis
Protocol: (§3) A hemolysis assay to evaluate surfactant effects of tested substances was performed using human blood approved by the Research Ethics Committee of Universidade Federal Fluminense (CAAE: 43134721.4.0000.5626). Erythrocytes are isolated upon three repeated centrifugation cycles at 1500 rpm for 15 min. Between each cycle of centrifugation, supernatant was removed, and a pH 7.5 PBS (phosphate-buffered saline) solution supplemented with 10 mM glucose was added to remove lysed erythrocytes. The number of cells was determined in an Automatic Cell Counter (Thermo Fisher, Waltham, MA, USA). Erythrocytes were then plated in 96-well plates at a concentration of 4 × 10^8 cells/well in triplicates, and 10 μL of compounds were added at a final concentration of 300 μM in PBS with glucose (final volume 100 μL). Ten μL of PBS was used as a negative control, and 10 μL of PBS with 0.1% Triton X-100 was used as a positive control. Data reading was performed with EPOCH (BioTek Instruments, Winooski, VT, USA) at an absorbance of 540 nm.

[4] = system: erythrocytes; assay: Hemolysis assay; assay type: cell-based; details: human erythrocytes, 300 μM
Protocol: as §3

[5] = system: C57BL/6 mice; assay: Acute toxicity assay in vivo; details: 14 days
Protocol: All experiments were performed in accordance with the Brazilian guidelines and regulations. Dosing and analysis were performed according to 423 OECD guidelines and reviewed by ref. . An experimental approach was conducted using experimental groups (n = 3) in which each group received a single dose of 7f (100, 200, or 400 mg/kg). […] Control group animals received only 3% DMSO in PBS vehicle. Animals were examined every day, twice a day, for mortality and morbidity for 14 days, and all animals were sacrificed by cervical dislocation. The animals’ body weight and average food consumption were measured every 7 days. […]
increased rear arching, and mobility impairment. The necropsy included an examination of the external characteristics of the carcass; external body orifices; the abdominal, thoracic, and cranial cavities; organs/tissues of liver, thymus, right kidney, right testicle, heart, and lung.
Animals upon euthanasia had their organs evaluated for signs of toxicity or morphological […]
are presented: changes in body weight and food intake, signs of morbidity, possible mortality, and macroscopic alterations in collected organs. Each experimental group consisted of three C57BL/6 mice. The animals were monitored for 14 days, after which they were euthanized and necropsied. […]

[6] = target: T1, PKM2 (Homo sapiens, UniProt P14618); assay: LDH-coupled Pyruvate Kinase M2 activity assay; assay type: biochemical
T1 construct: purchased Sigma-Aldrich Co., St. Louis, MO, USA
Protocol: LDH-coupled Pyruvate Kinase M2 (PKM2) activity assay was performed according to published protocols. For the assay, a pH 7.5 buffer solution composed of 50 mM Tris, 100 mM KCl, and 10 mM MgCl2 was prepared, to which 30 ng of human recombinant PKM2 (Sigma-Aldrich Co., St. Louis, MO, USA), 0.6 mM adenosine diphosphate (ADP), 0.5 mM phosphoenolpyruvate (PEP), 180 μM NADH, 10 μM fructose 1,6-bisphosphate (FBP), and 8 units of LDH were added. PEP was added only right before measurement to start the reaction. The change in absorbance at 340 nm due to oxidation of NADH by LDH was measured from 0 to 30 min using an EPOCH microplate spectrophotometer (BioTek Instruments, Winooski, VT, USA). The activity of PK was defined as % in relation to the indicated control.

[7] = target: T1, PKM2; assay: Quantification of ATP production from PKM2 reaction; assay type: biochemical; details: 1 × IC50 of 7f (55.13 μM)
Protocol: The measurement of PKM2 activity through ATP production was conducted to confirm whether the enzymatic inhibition observed in the previous assay was indeed due to PKM2. The master mix was prepared as indicated above. In a microtube containing the master mix prepared in the presence of 1 × IC50 7f, the control received the addition of 0.5 mM PEP for 3 min. Afterward, CellTiter-Glo reagent (Promega, Madison, WI, USA) was added as indicated by the manufacturer’s instructions, and the samples were kept shielded from light for 2 min. After the specified time, the sample was taken for reading in a Turner Designs TD 2020 luminometer (Turner Designs, Sunnyvale, CA, USA).

[8] = 100 mg/kg single intraperitoneal dose
[9] = 200 mg/kg single intraperitoneal dose
[10] = 400 mg/kg single intraperitoneal dose

T1 sequence (P14618 whole entry): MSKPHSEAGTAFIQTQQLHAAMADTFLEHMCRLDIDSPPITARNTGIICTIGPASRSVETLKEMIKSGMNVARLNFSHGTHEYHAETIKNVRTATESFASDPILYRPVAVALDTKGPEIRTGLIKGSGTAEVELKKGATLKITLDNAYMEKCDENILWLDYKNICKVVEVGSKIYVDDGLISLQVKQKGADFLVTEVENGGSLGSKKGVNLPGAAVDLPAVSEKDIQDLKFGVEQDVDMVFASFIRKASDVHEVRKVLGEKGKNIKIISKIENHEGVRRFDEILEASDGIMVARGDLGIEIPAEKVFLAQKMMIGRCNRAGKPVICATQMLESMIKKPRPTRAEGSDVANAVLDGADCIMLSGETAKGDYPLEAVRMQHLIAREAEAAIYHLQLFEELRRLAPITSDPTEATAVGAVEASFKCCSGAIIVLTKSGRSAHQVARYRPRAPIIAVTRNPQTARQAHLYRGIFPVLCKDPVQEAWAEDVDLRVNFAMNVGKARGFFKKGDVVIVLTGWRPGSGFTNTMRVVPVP

With `O=C1C=C(OCc2cn(CCCOc3cc(=O)oc4ccccc34)nn2)C(=O)c2ccccc21` [Compound 7f, 2-((1-(3-((2-Oxo-2H-chromen-4-yl)oxy)propyl)-1H-1,2,3-triazol-4-yl)methoxy)naphthalene-1,4-dione] the IC50 ([1]; Homo sapiens, SCC-4, MTT, 48 h) was 7.93 µM, the “SI SCC-4” value ([1]; IC50 human gingival fibroblast / IC50 SCC-4) was 2.87 and the IC50 ([2]; Homo sapiens, Fibroblast, MTT, 48 h, normal cells) was 22.8 µM. The “Average SI” value ([2]; average of SI for SCC-9, SCC-4 and SCC-25 versus gingival fibroblast) was 2.26, the hemolysis at 300 µM [3] was about 5% and the “hemolytic activity / membrane integrity” value [4] was “lack of significant hemolytic activity”. The “Change in body weight” value [5, 8] was “Absent”, the “Change in food consumption” value [5, 8] was “Absent” and the “Gross Necropsy” value [5, 8] was “Absent”. For the same molecule, the Morbidity [5, 8] was “Absent”, the “Change in body weight” value [5, 9] was “Absent” and the “Change in food consumption” value [5, 9] was “Absent”. The “Gross Necropsy” value [5, 9] was “Absent”, the Morbidity [5, 9] was “Absent” and the “Change in body weight” value [5, 10] was “Absent”. The “Change in food consumption” value [5, 10] was “Absent”, the “Gross Necropsy” value [5, 10] was “Absent” and the Morbidity [5, 10] was “Absent”. For the same molecule, the “PKM2 % of activity relative to control” value ([6]; 0.8 µM 7f, experimental replicates 1-5, LDH-coupled assay, vs DMSO) was 96.14% and 81.36% and 72.11% and 97.25% and 76.4557%, the “PKM2 % of activity relative to control” value ([6]; 4 µM 7f, experimental replicates 1-5, LDH-coupled assay, vs DMSO) was 88.82% and 107.0205% and 91.86% and 99.18% and the remaining activity at 4 µM ([6]; 4 µM 7f, experimental replicates 1-5, LDH-coupled assay, vs DMSO, read-out: PKM2 % of activity relative to control) was 96.2%. For the same molecule, the “PKM2 % of activity relative to control” value ([6]; 20 µM 7f, experimental replicates 1-5, LDH-coupled assay, vs DMSO) was 87.42% and 68.0203% and 47.4026% and 85.71% and 68.03%, the “PKM2 % of activity relative to control” value ([6]; 100 µM 7f, experimental replicates 1-5, LDH-coupled assay, vs DMSO) was 42.39% and 13.86% and 46.13% and 34.17% and 45.14% and the IC50 ([6]; LDH-coupled assay, 0.8 μM to 100 μM, 30 min) was 55.1 µM. For the same molecule, the inhibition at 55.13 µM [7] was about 50%.

Source: paper PMC12750388, “Coumarin-1,2,3-Triazole Conjugates as Molecular Scaffolds for the Selective Induction of ROS-Driven Apoptosis in Cancer Cells in the Development of Pyruvate Kinase M2 Inhibitors” (ACS Omega, 2025)
